{
  "source": "patent US20030216471A1",
  "about": "“Retinoid formulations for aerosolization and inhalation” (priority 2003, published 2003)",
  "key": {"RAR β": {"system": "RAR β", "experiment": "Time course of dietary RA effect on SENCAR mouse liver RAR β", "format": "in vivo", "details": "pharmacological dietary RA over physiological RA, day 1", "procedure": "(§1) SENCAR mice (30) were divided into six experimental groups.\n(§2) Tissues were collected, frozen in dry ice and kept at −70° C. until used. 500 mg aliquots were diced in small pieces and homogenized in 300 μl of cold PBS, using the hand held homogenizer for 2˜3 minutes. Sample and washes were centrifuged at 5000×g for 20 minutes. The pellet was suspended in 400 μl of ice-cold Buffer A [2 μl 0.5M EDTA, 10 μl 100 mM EGTA, 50 μl 100MM PMSF, 10 μl 1M DTT, 10 ml (10 mM HEPES pH 7.9+10 mM KCl)], and left at ice temperature for 15 minutes. 25 μl of 10% solution of NP-40 was added and samples were mixed in a vortex vigorously for 10 seconds. Samples were centrifuged at 14,000×g for 1 minute at 4° C. and the pellet treated once more in this fashion (resuspended etc.). The supernatant was removed and 100 μl of ice-cold Buffer C [4 μl 0.5M EDTA, 20 μl 100 mM EGTA, 20 μl 100 mM PMSF, 2 μl 1M DTT, 2 ml (20 mM HEPES pH 7.9+0.4M NaCl)] was added. Pellets were resuspended by tapping gently on the bottom of the Eppendorf tubes. Samples were rocked vigorously in a bucket of ice on an orbital shaker for 30 minutes. Samples were centrifuged at 14,000×g for 5 minutes at 4° C.\n(§3) Samples were prepared by adding one part of the Sample Buffer to one part of the sample and mixing well. Samples were heated at 95° C. for 5 minutes to induce denaturation. […]"}, "RARα [1]": {"system": "RARα", "experiment": "Immunohistochemical analysis of SENCAR mouse liver, dietary RA", "format": "in vivo", "details": "pharmacological RA diet compared to physiological RA, 75 weeks", "procedure": "Liver tissue (approximately 300 mg) was fixed in 10% formalin, embedded in paraffin and 5 μm sections were used for immunohistochemistry. Staining for RAR was similar to our previously described protocol {8656}. ABC kit Mouse/Rabbit IgG and DAB Substrate kit were used (Vector Laboratories Inc., 30 Ingold Road Burlingame, Calif.)."}, "RARγ": {"system": "RARγ", "experiment": "Western blot of SENCAR mouse liver, dietary RA 75 weeks, RAR γ", "format": "in vivo", "details": "for RARγ densitometry of Western blots: liver", "procedure": "as §2\n(§4) Samples were prepared by adding one part of the Sample Buffer to one part of the sample and mixing well. Samples were heated at 95° C. for 5 minutes to induce denaturation. 5 μl of Rainbow Standard and 5 μl of Biotinylated Molecular Marker were added to parallel wells. 20 μg protein per sample was loaded in each lane. Electrophoresis was performed with voltage set at 125V for about 1˜1.5 hours. Gel transfer was executed at 25V for 2 hours. The membrane was stained in Ponceau S. for 5 minutes and destained with one wash of 5% acetic acid. The membrane was then washed in TBS solution until the staining disappeared. Membranes were incubated in 1 ml blocking solution and 9 ml TBS for 60 minutes. Membranes were incubated in 1 ml of blocking solution and 19 ml TBS along with 20 μl primary antibody solution overnight (dilution of 1:1000). Membranes were washed in PBS-Tween 20, 3 times for 10 minutes each. […]"}, "RAR α": {"system": "RAR α", "experiment": "Time course of dietary RA effect on SENCAR mouse liver RAR α", "format": "in vivo", "details": "pharmacological dietary RA over physiological RA, day 1", "procedure": "as §1, §2, §3"}, "RAR γ": {"system": "RAR γ", "experiment": "Time course of dietary RA effect on SENCAR mouse liver RAR γ", "format": "in vivo", "details": "pharmacological dietary RA over physiological RA, day 1", "procedure": "as §1, §2, §3"}, "lung tissue RARs": {"system": "lung tissue RARs", "experiment": "SENCAR mouse lung tissue RARs, dietary RA", "format": "in vivo", "procedure": "as §1, §2, §3"}, "RARα [2]": {"system": "RARα", "experiment": "Western blot of SENCAR mouse liver, dietary RA 75 weeks, RAR α", "format": "in vivo", "details": "for RARα densitometry of Western blots: liver", "procedure": "as §2, §4"}, "RARβ": {"system": "RARβ", "experiment": "Western blot of SENCAR mouse liver, dietary RA 75 weeks, RAR β", "format": "in vivo", "details": "for RARβ densitometry of Western blots: liver", "procedure": "as §2, §4"}, "TGase II": {"system": "TGase II", "experiment": "TGase II activity in cultured human breast cancer MCF-7 cells", "format": "cell-based", "procedure": "Cells were harvested and Transglutaminase II activity was measured as described below. Nebulizer solution, inhalation procedures, details of animal housing are described below.\nCultured cells were placed in 100 μl scraping buffer [A: 2800 μl (400 μl 0.5M Na-Phosphate, 500 μl 0.01M EDTA, 100 μl 1M DTT, 9 ml PBS total 10 ml)+B:700 μl (10 μl 20 mg/ml PMSF 790 μl PBS total 800 μl)] for each dish. Cells were broken by a sonicator and kept in ice until used. TGase II assay was conducted as described below and previously {8217}.\nEnzyme assay mixtures were prepared by adding 80 μl of SUBSTRATE mixture (322.8 μl H2O, 120 μl 0.5M NaBorate, 60 μl 0.01M EDTA, 60 μl 0.1M CaCl2, 6 μl 1M DTT, 240 μl dimethyl casein, 30 μl Triton X-100, 1.21 μl [^3H]-Putrescine, 120 μl Putrescine) to 20 μl sample, 20 μl scraping buffer for blank control, 20 μl (18 μl scraping buffer+2 μl TGase II) for positive control. Samples were mixed in 15 ml tubes, the tubes were shaken before putting them into a 28° C. water bath for 30 minutes. Reactions were slowed down in an ice bath. 80 μl of the incubation mixture was adsorbed onto paper disks. These were immediately dropped into cold 10% TCA (0.1% Putrescine) and washed with agitation for 7 minutes, followed by 2 additional washes with 5% TCA (0.05% putrescine) for 5-7 minutes, and once more with cold (−20° C.) 95% ethanol for 5 minutes. Paper disks were dried and placed into 5 ml Aquasol, and counted in a Liquid Scintillation Counter. Protein concentration determination was conducted by the Bradford method."}, "[3]": {"details": "dietary RA 30 μg/g vs 3 μg/g diet, male SENCAR mice"}},
  "note": "“Also recorded” adds a separate entry of the source.",
  "data": [
    {"compound": "CC1=C(/C=C/C(C)=C/C=C/C(C)=C/C(=O)O)C(C)(C)CCC1", "note": "[RA, all-trans-retinoic acid]", "values": [
      {"measurement": "stimulation of liver RAR (second named, β)", "setting": "RAR β", "value": 4, "unit": "fold"},
      {"measurement": "RARα immunohistochemical staining in liver nuclei", "setting": "RARα [1]", "value": "striking increase of RAR expression; also recorded: marked increase in staining"},
      {"measurement": "upregulation of liver RAR (third named, γ)", "setting": "RARγ; [3]", "value": 12.5, "unit": "fold"},
      {"measurement": "RARγ densitometry of Western blots", "setting": "RARγ; RA diet 3 μg/g", "value": "23.1+/−6.7 IDV"},
      {"measurement": "RARγ densitometry of Western blots", "setting": "RARγ; RA diet 30 μg/g", "value": "288+/−17.4 IDV"},
      {"measurement": "stimulation of liver RAR (first named, α)", "setting": "RAR α", "value": 2, "unit": "fold"},
      {"measurement": "stimulation of liver RAR (third named, γ)", "setting": "RAR γ", "value": 2.1, "unit": "fold"},
      {"measurement": "effect of dietary RA on lung tissue RARs", "setting": "lung tissue RARs; long term feeding of 30 μg/g diet, SENCAR mouse", "value": "failed to induce"},
      {"measurement": "effect of dietary RA on lung tissue RARs", "setting": "lung tissue RARs; time course, 1 to 28 days, 30 μg/g diet, not shown", "value": "without any measurable effect; also recorded: no effect"},
      {"measurement": "upregulation of liver RAR (first named, α)", "setting": "RARα [2]; [3]", "value": 21.8, "unit": "fold"},
      {"measurement": "RARα densitometry of Western blots", "setting": "RARα [2]; RA diet 3 μg/g", "value": "12.1+/−7.2 IDV"},
      {"measurement": "RARα densitometry of Western blots", "setting": "RARα [2]; RA diet 30 μg/g", "value": "264+/−21.3 IDV"},
      {"measurement": "upregulation of liver RAR (second named, β)", "setting": "RARβ; [3]", "value": 13.5, "unit": "fold"},
      {"measurement": "RARβ densitometry of Western blots", "setting": "RARβ; RA diet 3 μg/g", "value": "18.9+/−7.4 IDV"},
      {"measurement": "RARβ densitometry of Western blots", "setting": "RARβ; RA diet 30 μg/g", "value": "254+/−31.9 IDV"},
      {"measurement": "TGase II Activity", "setting": "TGase II; MCF-7 cells treated at 10^−6 M for 72 hours, DMSO control 0.183", "value": "1.359+/−0.098 picomoles/μg protein/30 minutes"},
      {"measurement": "stimulating TGase II activity", "setting": "TGase II; MCF-7 cells, 10^−6 M, 72 hours, over DMSO", "value": 7.4, "unit": "Fold"}
    ]}
  ]
}
